# According to US20240368159A1, “HPK1 DEGRADERS, COMPOSITIONS COMPRISING THE HPK1 DEGRADER, AND METHODS OF USING THE SAME” (BIOFRONT LTD, priority 2021, published 2024):
# pIC50: −log10 of the molar value.
# Tests used:
# [1] = biological target: T1, HPK1 protein (Homo sapiens, UniProt Q92918); experiment: HPK1 enzyme inhibition assay (ADP-Glo); format: biochemical; conditions: MBP substrate, ATP, ADP-Glo readout
# T1 construct: purchased Signal Chem M23-11G-10
# T1 sequence (Q92918 1-346 limits assumed): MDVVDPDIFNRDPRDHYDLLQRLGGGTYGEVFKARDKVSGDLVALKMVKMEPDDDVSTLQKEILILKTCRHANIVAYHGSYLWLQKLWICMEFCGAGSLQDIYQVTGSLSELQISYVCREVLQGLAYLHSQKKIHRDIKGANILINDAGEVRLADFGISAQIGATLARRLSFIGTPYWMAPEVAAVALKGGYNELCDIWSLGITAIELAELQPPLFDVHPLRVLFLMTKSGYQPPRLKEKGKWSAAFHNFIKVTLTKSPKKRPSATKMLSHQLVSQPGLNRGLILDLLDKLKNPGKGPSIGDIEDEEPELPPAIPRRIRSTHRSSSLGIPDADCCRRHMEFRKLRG
# Method in brief: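 Recombinant human HPK1 preincubated with compound 60 min at 25 °C, then reaction with MBP (0.2 ug/ul, 2× stock) and ATP (20 μM, 2× stock) 60 min at 25 °C. ADP formed detected by ADP-Glo after ATP depletion and conversion to ATP; IC50 calculated from signal.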
# [2] = biological target: T2, HPK1 protein (Mus musculus, UniProt P70218); experiment: HPK1 protein degradation in mouse pan T cell (western blot); format: cell-based; conditions: 18 h incubation
# T2 construct: the CD3+ T cell population was isolated from spleenocytes of mice; endogenous in cells; host or cells: primary mouse splenic CD3+ (pan) T cells
# T2 sequence (P70218 1-827): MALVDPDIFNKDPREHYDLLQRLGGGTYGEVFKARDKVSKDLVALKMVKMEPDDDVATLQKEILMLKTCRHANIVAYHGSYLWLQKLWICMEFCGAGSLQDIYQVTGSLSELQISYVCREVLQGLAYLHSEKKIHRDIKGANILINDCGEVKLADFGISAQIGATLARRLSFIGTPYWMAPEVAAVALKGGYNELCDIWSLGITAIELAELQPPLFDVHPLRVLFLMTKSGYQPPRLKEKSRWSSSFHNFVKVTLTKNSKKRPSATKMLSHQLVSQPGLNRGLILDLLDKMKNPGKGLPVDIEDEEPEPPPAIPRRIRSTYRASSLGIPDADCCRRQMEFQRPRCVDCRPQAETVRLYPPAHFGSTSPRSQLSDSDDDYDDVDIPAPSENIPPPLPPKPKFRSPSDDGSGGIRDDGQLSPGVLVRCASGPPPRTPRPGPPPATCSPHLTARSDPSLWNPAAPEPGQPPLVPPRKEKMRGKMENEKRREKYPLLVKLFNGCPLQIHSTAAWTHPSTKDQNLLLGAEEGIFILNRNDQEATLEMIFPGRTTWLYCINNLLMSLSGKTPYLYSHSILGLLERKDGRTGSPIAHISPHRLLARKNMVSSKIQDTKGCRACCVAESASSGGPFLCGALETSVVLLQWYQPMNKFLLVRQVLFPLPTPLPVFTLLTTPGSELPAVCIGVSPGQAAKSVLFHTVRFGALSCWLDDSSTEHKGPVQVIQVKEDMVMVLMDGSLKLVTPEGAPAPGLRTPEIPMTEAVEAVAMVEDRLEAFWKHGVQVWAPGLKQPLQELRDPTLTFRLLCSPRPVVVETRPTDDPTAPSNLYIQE
# Method in brief: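 CD3+ pan T cells were isolated from mouse splenocytes and incubated 18 h with a range of compound concentrations. Lysates were normalised by BCA and run on SDS-PAGE. HPK1 was detected by western blot with an anti-human HPK1 polyclonal antibody, with β-actin as loading control.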
# [3] = system: IL-2 production in primary mouse CD3+ T cells; experiment: Cytokine measurement: IL-2 production in mouse CD3+ T cells (ELISA); format: cell-based; conditions: T-cell, plate bound anti-CD3, 40 hrs; for fold induction at 1 µM: 1 uM compound, read-out: IL-2 production Fold change (1 uM); for fold induction at 3 µM: 3 uM compound, read-out: IL-2 production Fold change (3 uM)
# Protocol: Anti-CD3 Ab was used to provide signal 1 to stimulate mouse CD3+ T cells. Effect of compound stimulation on T cells was measure by IL2 ELISA. Briefly, anti-CD3 Ab was coated onto plates overnight. Isolated T cells from mouse splenocytes were incubated with plate bound CD3 in the presence and absence of compound for 40 hrs. After incubation, the supernatant was collected and IL2 level in the supernatant was determined by mouse IL2 ELISA kit.
# [4] = system: HPK1 p-SLP-76; experiment: HPK1 p-SLP-76 inhibition assay in human PBMC (HTRF); format: cell-based; conditions: 6 h compound, anti-CD3 stimulation 20 min
# Method in brief: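 Human PBMC starved overnight in 0.5% FBS, treated with compound 6 h at 37° C, then stimulated with anti-CD3 (10 ug/mL final) for 20 min. Lysates analysed for phospho-SLP76 by HTRF after overnight detection-antibody incubation at 25° C.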
# [5] = biological target: T3, HPK1 protein (Homo sapiens, UniProt Q92918); experiment: HPK1 protein degradation in human PBMC (western blot); format: cell-based; conditions: 18 h incubation
# T3 construct: Frozen human PBMC were purchased from Shanghai OribioTech; host or cells: human PBMC
# Method in brief: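 Recovered frozen human PBMC in RPMI1640 exposed to a range of compound concentrations for 18 h. Lysates normalized by BCA and HPK1 level read by western blot with anti-HPK1 polyclonal antibody, β-actin as loading control.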
# T3 sequence (Q92918 whole entry): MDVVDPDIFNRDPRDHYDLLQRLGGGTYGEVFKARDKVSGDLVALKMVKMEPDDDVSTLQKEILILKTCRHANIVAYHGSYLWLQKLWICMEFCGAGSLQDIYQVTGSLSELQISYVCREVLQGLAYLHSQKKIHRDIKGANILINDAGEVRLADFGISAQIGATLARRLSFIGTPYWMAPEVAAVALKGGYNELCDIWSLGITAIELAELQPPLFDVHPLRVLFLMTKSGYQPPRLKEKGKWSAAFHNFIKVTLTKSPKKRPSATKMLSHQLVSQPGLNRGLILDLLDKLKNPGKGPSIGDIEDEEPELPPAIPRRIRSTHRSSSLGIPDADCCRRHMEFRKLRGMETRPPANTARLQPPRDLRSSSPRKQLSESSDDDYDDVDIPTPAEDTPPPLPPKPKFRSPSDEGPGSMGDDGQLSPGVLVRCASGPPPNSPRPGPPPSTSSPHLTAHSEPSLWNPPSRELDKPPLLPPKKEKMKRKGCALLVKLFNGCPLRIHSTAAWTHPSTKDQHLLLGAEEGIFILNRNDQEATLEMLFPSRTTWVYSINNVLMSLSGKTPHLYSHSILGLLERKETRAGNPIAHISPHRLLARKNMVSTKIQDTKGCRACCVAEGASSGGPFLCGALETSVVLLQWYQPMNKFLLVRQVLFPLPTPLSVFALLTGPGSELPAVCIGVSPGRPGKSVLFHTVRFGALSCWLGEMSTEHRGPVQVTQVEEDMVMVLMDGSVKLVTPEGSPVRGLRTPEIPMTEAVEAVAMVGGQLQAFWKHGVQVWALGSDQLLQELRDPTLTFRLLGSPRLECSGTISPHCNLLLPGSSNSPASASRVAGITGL
Structure (SMILES),pIC50 [1],Dmax [2],pIC50 [4],Dmax [5],fold induction at 1 µM [3],fold induction at 3 µM [3]
"O=C1CCC(N2Cc3cc(N4CCN(CCCN5CCN(c6cccc(-c7cnc8[nH]cc(C9CC9)c8c7Cl)c6)C(=O)C5)CC4)ccc3C2=O)C(=O)N1 (stereo not drawn) [Example 63, 3-(5-(4-(3-(4-(3-(4-chloro-3-cyclopropyl-1H-pyrrolo[2,3-b]pyridin-5-yl)phenyl)-3-oxopiperazin-1-yl)propyl)piperazin-1-yl)-1-oxoisoindolin-2-yl)piperidine-2,6-dione]",≥ 8.00,–,≥ 6.52,90%,2.1,2
"O=C1CCC(N2C(=O)c3ccc(OCCC4CN(C(=O)N5CCN(c6cccc(-c7cnc8[nH]cc(C9CC9)c8c7Cl)c6)C(=O)C5)C4)cc3C2=O)C(=O)N1 (stereo not drawn) [Example 95, 5-(2-(1-(4-(3-(4-chloro-3-cyclopropyl-1H-pyrrolo[2,3-b]pyridin-5-yl)phenyl)-3-oxopiperazine-1-carbonyl)azetidin-3-yl)ethoxy)-2-(2,6-dioxopiperidin-3-yl)isoindoline-1,3-dione]",7.00 to 8.00,–,–,–,1.8,2.7
"O=C1CCC(Nc2ccc(C3CCN(CCCN4CCN(c5cccc(-c6cnc7[nH]cc(C8CC8)c7c6Cl)c5)C(=O)C4)CC3)cc2)C(=O)N1 (stereo not drawn) [Example 78, 3-((4-(1-(3-(4-(3-(4-chloro-3-cyclopropyl-1H-pyrrolo[2,3-b]pyridin-5-yl)phenyl)-3-oxopiperazin-1-yl)propyl)piperidin-4-yl)phenyl)amino)piperidine-2,6-dione]",≥ 8.00,88%,5.52 to 6.52,90%,–,–
O=C1CCC(N2C(=O)c3cc(F)c(N4CCN(CCCN5CCN(c6cccc(-c7cnc8[nH]cc(C9CC9)c8c7Cl)c6)C(=O)C5)CC4)cc3C2=O)C(=O)N1 (stereo not drawn) [Example 43],6.00 to 7.00,95%,5.52 to 6.52,94%,–,–
"O=C1CCC(c2ccc(C3CCN(CCCS(=O)(=O)N4CCN(c5cccc(-c6cnc7[nH]cc(C8CC8)c7c6Cl)c5)C(=O)C4)CC3)cc2)C(=O)N1 (stereo not drawn) [Example 102, 3-(4-(1-(3-((4-(3-(4-chloro-3-cyclopropyl-1H-pyrrolo[2,3-b]pyridin-5-yl)phenyl)-3-oxopiperazin-1-yl)sulfonyl)propyl)piperidin-4-yl)phenyl)piperidine-2,6-dione]",≥ 8.00,–,5.52 to 6.52,–,2.9,2.6

# Continued, in another order:
pIC50 [1],Dmax [2],pIC50 [4],Dmax [5],Structure (SMILES),fold induction at 1 µM [3],fold induction at 3 µM [3]
≥ 8.00,97%,≥ 6.52,–,"O=C1CCC(Nc2ccc(N3CCN(CCCN4CCN(c5cccc(-c6cnc7[nH]cc(C8CC8)c7c6Cl)c5)C(=O)C4)CC3)c(F)c2)C(=O)N1 (stereo not drawn) [Example 79, 3-((4-(4-(3-(4-(3-(4-chloro-3-cyclopropyl-1H-pyrrolo[2,3-b]pyridin-5-yl)phenyl)-3-oxopiperazin-1-yl)propyl)piperazin-1-yl)-3-fluorophenyl)amino) piperidine-2,6-dione]",2.6,< 0.5
7.00 to 8.00,–,< 5.00,–,O=C1CCC(N2C(=O)c3ccc(N4CCC(COC(=O)N5CCN(c6cccc(-c7cnc8[nH]cc(C9CC9)c8c7Cl)c6)C(=O)C5)CC4)cc3C2=O)C(=O)N1 (stereo not drawn) [Example 88],2.3,2.4
≥ 8.00,–,≥ 6.52,–,"O=C1CCC(N2Cc3cc(N4CCN(CCCS(=O)(=O)N5CCN(c6cccc(-c7cnc8[nH]cc(C9CC9)c8c7Cl)c6)C(=O)C5)CC4)ccc3C2=O)C(=O)N1 (stereo not drawn) [Example 103, 3-(5-(4-(3-((4-(3-(4-chloro-3-cyclopropyl-1H-pyrrolo[2,3-b]pyridin-5-yl)phenyl)-3-oxopiperazin-1-yl)sulfonyl)propyl)piperazin-1-yl)-1-oxoisoindolin-2-yl)piperidine-2,6-dione]",2.1,2.8
